Measured values published in US11547652B2, “Combination products and cosmetic compositions for controlling skin disorders and skin aging that affect keratinocytes and/or fibroblasts and the dermis” (NUTRICOS Technologies, priority 2014, dated 2023).

Tests used:
[1] = tested on: NHDF cells (Normal Human Dermal Fibroblasts); assay: Hyaluronic acid production by NHDF cells (ELISA on supernatant); format: cell-based; conditions: 72 hours, glucosamine 0.1 to 100 μg/ml, hyaluronic acid 40 to 6000 ng/ml, source of collagen and hyaluronic acid 4 to 4000 ng/ml, FIG. 2
Experimental: Normal human dermal fibroblasts (NHDF) were cultured at 37° C. under 5% CO2 in a DMEM culture medium supplemented with glutamine (2 mM); calf serum (1%), penicillin (50 U/ml) and streptomycin ([…]). Glucosamine (0.1 to 100 μg/ml) and/or hyaluronic acid (from 40 to 6000 ng/ml) and/or a source of collagen and hyaluronic acid (in a ratio of between 0.07% and 15%) at concentrations ranging from 4 to 4000 ng/ml were then added to the cultivation medium alone or in combination. After 72 hours of cultivation under these conditions, the supernatant was collected to quantify the hyaluronic acid produced by the cells using an ELISA Duoset Hyaluronan kit marketed by the company R & D System (DY3614 reference).

[2] = tested on: NHEK cells (Normal Human Epidermal Keratinocytes); assay: Hyaluronic acid production by NHEK cells (ELISA on supernatant); format: cell-based; conditions: 72 hours of cultivation, hyaluronic acid 40 to 6000 ng/ml, glucosamine sulfate 0.25 to 25 μg/ml, FIG. 1
Experimental: Normal human epidermal keratinocytes were cultured at 37° C. under 5% CO2 in a medium keratinocyte-SFM culture, supplemented with epidermal growth factor (EGF; 0.25 ng/ml), a pituitary extract (25 μg/ml) and an antibiotic (gentamicin 25 μg/ml) in 96-well plates for 24 h without stimulation. Glucosamine and/or hyaluronic acid are then added to the cultivation medium alone or in combination at concentrations of 40 to 6000 ng/ml hyaluronic acid and 0.25 to 25 μg/ml to glucosamine sulfate. After 72 hours of cultivation under these conditions, the supernatant was collected to quantify the hyaluronic acid produced by the cells using an ELISA Duoset Hyaluronan kit marketed by the company R & D System (DY3614 reference).

Compound | hyaluronic acid production by human fibroblasts in vitro [1] | hyaluronic acid production by human keratinocytes in vitro [2]
N[C@H]1C(O)O[C@H](CO)[C@@H](O)[C@@H]1O.O=S(=O)(O)O (stereo partly shown) [glucosamine sulfate] | lack of stimulation | induction of hyaluronic acid production
hyaluronic acid | did not stimulate the synthesis of hyaluronic acid | does not stimulate the synthesis of hyaluronic acid
